According to ChEMBL document CHEMBL1201862, “PubChem BioAssay data set” (2004):
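Five compound concentrations were applied to cells in 96-well plates for 48 hours; endpoints were derived by simple linear interpolation of the resulting dose-response curve. At the GI50, growth is halved.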 Active and inactive are the calls of the source. No stated cut-off is given here; in the data, active = GI50 up to about 1.1 µM and inactive = higher.

What was measured:
Test in all cases: inhibition of tumour cell growth, NCI panel, 48 h
SNB-78 = tested on: SNB-78
KM-20L2 = tested on: KM-20L2
XF498 = tested on: XF498
DMS-273 = tested on: DMS-273
M19-MEL = tested on: M19-MEL
DLD-1 = tested on: DLD-1
HOP-18 = tested on: HOP-18
DMS-114 = tested on: DMS-114
RXF 631 = tested on: RXF 631

SMILES	GI50 (SNB-78)	GI50 (KM-20L2)	GI50 (XF498)	GI50 (DMS-273)	GI50 (M19-MEL)	GI50 (DLD-1)	GI50 (HOP-18)	GI50 (DMS-114)	GI50 (RXF 631)
Cc1ccc(NC(=O)CC2Sc3ccccc3NC2=O)c(C)c1 (configuration not stated)	24.7 µM (inactive)	10.9 µM (inactive)	18.2 µM (inactive)	12.2 µM (inactive)	15.3 µM (inactive)	8.15 µM (inactive)	11 µM (inactive)	17.9 µM (inactive)	7.94 µM (inactive)
c1ccc(CN2COc3c(ccc4c5c(ccc34)CN(Cc3ccccc3)CO5)C2)cc1	> 100 µM (inactive)	26.2 µM (inactive)	–	–	> 100 µM (inactive)	> 100 µM (inactive)	52 µM (inactive)	> 100 µM (inactive)	> 100 µM (inactive)
COc1cccc2c1C(CO)N1C(C#N)C3CC(C(=O)O)C(C1C2)N3C (configuration not stated)	2.81 µM (inactive)	3.33 µM (inactive)	1.61 µM (inactive)	2.77 µM (inactive)	3.54 µM (inactive)	2.79 µM (inactive)	–	2.21 µM (inactive)	–
NC(CCSCC(F)F)C(=O)O (configuration not stated)	> 100 µM (inactive)	> 100 µM (inactive)	> 100 µM (inactive)	> 100 µM (inactive)	> 100 µM (inactive)	> 100 µM (inactive)	> 100 µM (inactive)	> 100 µM (inactive)	> 100 µM (inactive)
COc1ccc(O)c2c(=O)ccccc12	> 100 µM (inactive)	–	2.69 µM (inactive)	> 100 µM (inactive)	> 100 µM (inactive)	> 100 µM (inactive)	–	> 100 µM (inactive)	> 100 µM (inactive)
O=C1CCNC/C1=C\c1ccccc1	32.8 µM (inactive)	14.7 µM (inactive)	23.9 µM (inactive)	25.8 µM (inactive)	17.9 µM (inactive)	18.9 µM (inactive)	> 10 µM (inactive)	24.1 µM (inactive)	26.5 µM (inactive)
CC1CCCc2c1c1ccc3c(O)cccc3c1oc2=O (configuration not stated)	23.1 µM (inactive)	> 100 µM (inactive)	55 µM (inactive)	31.1 µM (inactive)	> 100 µM (inactive)	> 100 µM (inactive)	26.6 µM (inactive)	19.6 µM (inactive)	–
COc1cc([C@@H]2c3cc4c(cc3[C@@H](NC(=O)c3cccc(F)c3)C3COC(=O)[C@@H]32)OCO4)cc(OC)c1O (some centres not stated)	15.5 µM (inactive)	1.68 µM (inactive)	–	0.153 µM (active)	3.22 µM (inactive)	2.32 µM (inactive)	> 100 µM (inactive)	0.607 µM (active)	–
COC(=O)C1(O)c2ccccc2N=C2C1CCN2C (configuration not stated)	> 100 µM (inactive)	> 100 µM (inactive)	> 100 µM (inactive)	–	–	> 100 µM (inactive)	> 100 µM (inactive)	> 100 µM (inactive)	–
CC1=CP(=O)(c2ccccc2)C=C(C)C1=C(Cl)Cl (configuration not stated)	2.98 µM (inactive)	2.48 µM (inactive)	17.4 µM (inactive)	3.3 µM (inactive)	12.2 µM (inactive)	8.17 µM (inactive)	18.7 µM (inactive)	10.8 µM (inactive)	–
COc1cc2c(cc1OC)-c1c(cc(OC)c(OC)c1OC)C2=O	–	> 100 µM (inactive)	–	–	> 100 µM (inactive)	> 100 µM (inactive)	> 100 µM (inactive)	> 100 µM (inactive)	92.9 µM (inactive)
CCO/S(=N/S(=O)(=O)c1ccccc1)c1ccccc1[N+](=O)[O-] (configuration not stated)	–	> 100 µM (inactive)	> 100 µM (inactive)	> 100 µM (inactive)	> 100 µM (inactive)	> 100 µM (inactive)	> 100 µM (inactive)	> 100 µM (inactive)	–
Cc1cc(C(=O)N2CCN(Cc3ccccc3)CC2)c(C)o1	> 100 µM (inactive)	> 100 µM (inactive)	> 100 µM (inactive)	–	> 100 µM (inactive)	> 100 µM (inactive)	> 100 µM (inactive)	> 100 µM (inactive)	–
